Experimental findings from ChEMBL document CHEMBL1128205, “Design and synthesis of conformationally constrained analogues of 4-(3-butoxy-4-methoxybenzyl)imidazolidin-2-one (Ro 20-1724) as potent inhibitors of cAMP-specific phosphodiesterase” (J Med Chem, 1995) are described below.

For orientation: pKi means the Ki on a negative log10 scale, so that one unit is a factor of ten. Low values mean a large Ki, high ones a small Ki. A word on the pIC50: it is the negative decadic logarithm of the IC50, by convention in mol/L. A high value points to a small IC50.

pIC50, pKi: −log10 of the molar value.

One experiment deals with 3',5'-cyclic-AMP phosphodiesterase 4B (Homo sapiens, UniProt Q07343). The experiment in a line: Inhibition of human Phosphodiesterase 4B.
Chain of 3',5'-cyclic-AMP phosphodiesterase 4B (Q07343 whole entry): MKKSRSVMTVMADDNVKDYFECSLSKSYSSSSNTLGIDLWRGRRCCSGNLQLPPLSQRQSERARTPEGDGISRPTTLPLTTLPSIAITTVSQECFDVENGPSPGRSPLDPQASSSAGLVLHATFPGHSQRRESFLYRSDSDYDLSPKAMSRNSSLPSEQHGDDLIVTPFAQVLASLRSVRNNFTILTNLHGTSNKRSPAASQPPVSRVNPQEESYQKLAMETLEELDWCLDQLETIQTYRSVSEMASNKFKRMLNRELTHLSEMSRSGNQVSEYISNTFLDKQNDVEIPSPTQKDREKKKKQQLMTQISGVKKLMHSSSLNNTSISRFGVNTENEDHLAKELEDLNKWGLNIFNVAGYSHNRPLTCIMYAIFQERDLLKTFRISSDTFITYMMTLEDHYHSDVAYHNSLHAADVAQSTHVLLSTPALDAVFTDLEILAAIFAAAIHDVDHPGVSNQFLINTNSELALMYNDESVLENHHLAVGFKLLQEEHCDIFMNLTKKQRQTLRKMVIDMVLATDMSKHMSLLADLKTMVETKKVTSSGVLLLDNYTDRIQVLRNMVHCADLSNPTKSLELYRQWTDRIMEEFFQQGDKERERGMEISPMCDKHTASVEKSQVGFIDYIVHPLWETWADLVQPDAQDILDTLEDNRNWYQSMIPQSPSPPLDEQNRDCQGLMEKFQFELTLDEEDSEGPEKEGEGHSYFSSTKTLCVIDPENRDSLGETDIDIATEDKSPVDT
Compound `COc1ccc([C@H]2CCN3C(=O)OC[C@@H]23)cc1OC1CCCC1` had a negative-log Ki (pKi) of 6.55.

Take `COc1ccc([C@H]2CCN3C(=O)CC[C@H]23)cc1OC1CCCC1`: the pKi was 7.20.

`COc1ccc([C@H]2CCN3C(=O)NC[C@@H]23)cc1OC1CCCC1` showed a pKi of 6.23.

In the case of `COc1ccc([C@H]2CCN3C(=O)NC[C@H]23)cc1OC1CCCC1`, the negative-log Ki (pKi) is 7.57.

With `COc1ccc([C@H]2CCN3C(=O)OC[C@H]23)cc1OC1CCCC1`, the negative-log Ki (pKi) is 7.15.

Compound `COc1ccc([C@H]2CCN3C(=O)CC[C@@H]23)cc1OC1CCCC1` had a negative-log Ki (pKi) of 6.47.

Consider `COc1ccc(CC2CNC(=O)N2)cc1OC1CCCC1` (stereo not given), for which the negative-log Ki (pKi) is 6.35.

For another experiment, the species on record is Homo sapiens. The experiment in a line: Inhibition of LPS-induced TNF-alpha secretion from purified human peripheral blood monocytes. The experiment is classed as functional.
In turn, `COc1ccc([C@H]2CCN3C(=O)NC[C@H]23)cc1OC1CCCC1` showed a negative-log IC50 (pIC50) of 6.54.

Compound `CCCCOc1cc(CC2CNC(=O)N2)ccc1OC` (stereo not given) [RO-201724] gave a pIC50 of 5.74.

In turn, `COc1ccc(C2CNC(=O)C2)cc1OC1CCCC1` (stereo not given) [ROLIPRAM] gave a negative logarithm of the IC50 (pIC50) of 6.49.
